Data on 3 compounds can be found in US20050240041A1, “Palm-based hydroxy fatty acid” (priority 2004, published 2005).

“Also recorded” adds a separate entry of the source.

Data set [1] can be described thus: in-vitro dermal (skin) irritection test. On the procedure: (§1) The purified palm DHSA obtained in the laboratory was subjected to in-vitro and in-vivo dermal irritection test which confirmed that the compound is non irritant, and thus suitable as one of the ingredients used in cosmetic products. The details of the current invention is described below.
In the recrystallization technique, the crude DHSA is dissolved in the solvent with a slight heating of the mixture (about 50° C. to 60° C.). The solution is left to cool down gradually to ambient temperature and further cooled at about 10° C. to 15° C. to ensure maximum yield. The precipitate obtained is filtered and dried. The product referred to, as purified palm DHSA is a white powdery solid with waxy sensation. The non-irritancy properly was conducted through in vitro derived skin irritection study.

The conditions of data set [2]: cited from earlier work.
Data set [3] is described as follows: in-vivo dermal irritection test.
Excerpt: as §1

For `CCCCCCCCC(O)C(O)CCCCCCCC(=O)O` (stereo not drawn) [purified DHSA, 9,10-dihydroxystearic acid], the irritancy result in data set [1] (test not named at this place) is given as “non-irritant”.

For `CCCCCCCCC(O)C(O)CCCCCCCC(=O)O` (stereo not drawn) [9,10-dihydroxystearic acid], the solubility in ether result in data set [2] (ether) was “slightly soluble”. In addition, the “solubility in hot alcohol or acetone” value in data set [2] (hot alcohol or acetone) is “soluble”. Moreover, the solubility in water result in data set [2] (water) is “insoluble”.

Turning to `CCCCCCCCC(O)C(O)CCCCCCCC(=O)O` (stereo not drawn) [purified palm DHSA, 9,10-dihydroxystearic acid], the dermal irritancy result in data set [1] (in vitro dermal/skin irritection study) is listed as “non irritant; also recorded: non-irritant”; in data set [3], “non irritant”.
